Publication PMC7662849, “Mimicking the Nucleosomal Context in Peptide-Based Binders of a H3K36me Reader Increases Binding Affinity While Altering the Binding Mode” (Molecules, 2020)
Read-outs that look alike come from different tables or passages of the source. Positions of bridges follow the written chain, without caps; N, C: chain ends. Non-standard residues stand in square brackets, D forms with d. Residues, ends and D or L forms follow the SMILES beside them. Chains are numbered I, II in the order given. Lys(Me3) = C[N+](C)(C)CCCC[C@H](N)C(=O)O

Molecular target: T1, PSIP1^PWWP (AA 2-100, Uniprot-ID: O75475) (Homo sapiens, UniProt O75475)
T1 construct: PSIP1^PWWP (AA 2-100, Uniprot-ID: O75475); GST (cleaved yes); made in house; host or cells: E. coli BL21 Rosetta2 (DE3)
T1 sequence (O75475 2-100): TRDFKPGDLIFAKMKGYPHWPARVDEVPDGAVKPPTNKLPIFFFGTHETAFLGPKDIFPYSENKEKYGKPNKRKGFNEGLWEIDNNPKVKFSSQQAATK
Test: NMR titration (15N-HSQC chemical shift perturbation) of peptides binding to PSIP1 PWWP domain
Method: Cells were grown to an OD of 0.6 and induced with 500 μM IPTG. The protein was expressed for 3 h at 37 °C. […] The GST-fusion protein was eluted using elution buffer (50 mM KPi pH 7.0, 100 mM KCl, 50 mM reduced glutathione, 1 mM DTT, complete EDTA-free protease inhibitor (Roche)). Thrombin cleavage of the GST-tag was carried out for 3 h at 37 °C after adding 10U of thrombin to the combined eluted fractions, then quenched by addition of 1 mM PMSF and incubation for 15 min at 37 °C. […] The PWWP-containing fractions were then combined and dialyzed to NMR buffer (20 mM NaPi (pH = 7.0), 150 mM NaCl, cOmplete protease inhibitor, 10% (v/v) D2O).
All peptides were dissolved in NMR buffer (20 mM NaPi (pH = 7.0), 150 mM NaCl, cOmplete protease inhibitor, 10% (v/v) D2O). The pH for all peptide stocks was adjusted to 7.0 using NH4OH. Determination of peptide stock concentrations was done using 1D NMR spectra with TSP as reference compound. […] The Val signal was verified by 2D NMR spectra (TOCSY, ^13C-HSQC).
All NMR experiments were carried out at 298 K on a Bruker Avance spectrometer operating at 750 MHz ^1H Larmor frequency with room-temperature probe. Processing was done using the Bruker’s TopSpin. Spectra were analyzed using Sparky (Goddard and Kneller, UCSF).
Titration data were fitted using MatLAB scripts (available upon request) using the fast-exchange assumption [50]. […] Profiles were selected either form the ^1H or ^15N dimension. A 1:1 binding model was assumed. […] The degrees of freedom are equal to total number of points NM compensated for the number of global variables (KD), the M offset-variables and M chemical shift differences. To obtain the 95% confidence limits in the KD, a one-dimensional grid search was performed either systematically increasing or decreasing the KD until the reduced χ^2 exceeded the 95% critical value according to an F-test.
Analysis of the bound-state chemical shifts was based on selected residues K14 (^1H/^15N), M15 (^1H), W21 (^1H), F44 (^15N) T47 (^1H/^15N), H48 (^1H), T50 (^1H/^15N) and A51 (^1H/^15N) due to their significant shift in all experiments.

Row | Kd (same titration and fit, limits from grid search, F-test, read-out: KD, 95% probability limits) [µM] | Kd (~300 µM 15N-PSIP1^PWWP, 20 mM NaPi pH 7.0, 150 mM NaCl, 298 K, 1:1 binding model, read-out: KD (global fit of NMR-derived binding curves)) [µM] | Kd (~300 µM 15N-PSIP1^PWWP, 20 mM NaPi pH 7.0, 150 mM NaCl, 10% D2O, 298 K, 1:1 binding model, fast exchange, global fit of all residues with significant CSP, read-out: KD, best-fit value (global fit of NMR titration data)) [µM] | Compound
1 | 190 to 700 | 360 |  | CC(=O)N[C@@H](CO)C(=O)N[C@@H](C)C(=O)N1CCC[C@H]1C(=O)N[C@@H](C)C(=O)N[C@H](C(=O)NCC(=O)NCC(=O)N[C@H](C(=O)N[C@@H](CCCC[N+](C)(C)C)C(=O)NCC(=O)NCC(=O)NCCCC[C@H](NC(=O)CNC(=O)CNC(=O)[C@H](CCC(=O)O)NC(=O)[C@H](CCC(=O)O)NC(=O)[C@H](CCC(=O)O)NC(=O)[C@H](CCC(=O)O)NC(=O)[C@H](CCC(=O)O)NC(C)=O)C(=O)NCC(=O)NCC(=O)N[C@@H](CCC(=O)O)C(=O)N[C@@H](CCC(=O)O)C(=O)N[C@@H](CCC(=O)O)C(=O)N[C@@H](CCC(=O)O)C(=O)N[C@@H](CCC(=O)O)C(N)=O)C(C)C)[C@@H](C)O [H3^(E5)2] (I: Ac-EEEEEGGKGGEEEEE-NH2 / II: Ac-SAPATGGV[Lys(Me3)]GG; amide I:8-II:C; N-terminus and C-terminus assumed)
2 |  |  | 1740 | CC(=O)N[C@@H](CO)C(=O)N[C@@H](C)C(=O)N1CCC[C@H]1C(=O)N[C@@H](C)C(=O)N[C@H](C(=O)NCC(=O)NCC(=O)N[C@H](C(=O)N[C@@H](CCCC[N+](C)(C)C)C(=O)N[C@@H](CCCCN)C(=O)N1CCC[C@H]1C(=O)N[C@@H](CCC(=O)O)C(=O)N[C@@H](CCC(=O)O)C(=O)N[C@@H](CCC(=O)O)C(=O)N[C@@H](CCC(=O)O)C(=O)N[C@@H](CCC(=O)O)C(=O)N[C@@H](CCC(=O)O)C(N)=O)C(C)C)[C@@H](C)O [H3^PE6] (Ac-SAPATGGV[Lys(Me3)]KPEEEEEE-NH2)
